# Laboratory results published in patent US8937183B2, “Detection of hydrogen peroxide” (Promega Corporation, priority 2011, dated 2015).
# Experiment: Signal strength differences due to reaction pH and buffer composition (hydrogen peroxide, D-cysteine conversion, LDR)
# Type: biochemical
# Conditions: for Net Average Signals at 15 Minutes / Net Average Signals at 60 Minutes / Net Average Signals at 105 Minutes: 100 μl of 10 μM H2O2 added
# Method: A 30 μl sample of 4 mg/ml PBI 4458 in DMSO was diluted to 1.5 ml with Nanopure water, and 50 μl added to wells A1-12 and E1-12 of a microtiter plate. A 30 μl sample of 4 mg/ml PBI 4472 in DMSO was diluted to 1.5 ml with Nanopure, and 50 μl added to wells B1-12 and F1-12 of the plate. A 30 μl sample of 4 mg/ml PBI 4480 in DMSO was diluted to 1.5 ml with Nanopure water, and 50 μl added to wells C1-12 and G1-12 of the plate. A 30 μl sample of 4 mg/ml PBI 4481 in DMSO was diluted to 1.5 ml with Nanopure water, and 50 μl added to wells D1-12 and H1-12 of the plate. To the plate, a 50 μl sample of 200 mM KHPO4, pH 7.4 was added to wells A1-D4; 50 μl 200 mM Tris buffer, pH 7.4 was added to wells A5-D8; 50 μl 250 mM HEPES buffer, pH 7.5 was added to wells A9-D12; 50 μl 200 mM KHPO4 buffer, pH 9.2 was added to wells E1-H4; 50 μl 250 mM Tris buffer, pH 10.4 was added to wells E5-H8; and 50 μl 100 mM CAPS buffer, pH 10.4 was added to wells E9-H12.
# A sample of hydrogen peroxide (30%, Sigma, H1009-5 ml) was diluted to 10 μM with Nanopure water, and 100 μl added to columns 3, 4, 7, 8, 11, 12 wells A-H of the plate. 100 μl Nanopure water was added to columns 1, 2, 5, 6, 9 and 10 of the plate. The plate was incubated at room temperature for 15 minutes.
# A conversion solution was made by mixing 5 ml of 1 M HEPES buffer, pH 7.5, 4.9 ml of Nanopure water and 100 μl of 100 mM D-cysteine (in Nanopure water), and […] added to all wells of a luminometer plate.
# After incubation, 25 μl of sample from all wells in the plate was transferred and mixed into the corresponding wells in the luminometer plate, incubated 2-3 minutes at room temperature, and 50 μl LDR (Example 23) added. The luminometer plate was incubated for 15 minutes at room temperature, and bioluminescence detected on a GloMax® luminometer.
# Additional samples were taken at 60 and 105 minutes and added to a fresh luminometer plates containing 25 μl of conversion solution in all wells. The plates were then incubated for 15 minutes at room temperature, and bioluminescence detected as previously described.
compound,measurement,setting,value
"CC1(C)OB(c2ccc(COc3ccc4nc(C#N)sc4c3)cc2F)OC1(C)C [PBI 4481, 6-((3-fluoro-4-(4,4,5,5-tetramethyl-1,3,2-dioxaborolan-2-yl)benzyl)oxy)benzo[d]thiazole-2-carbonitrile]",Signal to Background Ratios at 15 Minutes,"CAPS pH 10.4, 15 minutes",15.0
same,Net Average Signals at 15 Minutes,"CAPS pH 10.4, 15 minutes","3,139,869 RLU"
same,Signal to Background Ratios at 60 Minutes,"CAPS pH 10.4, 60 minutes",15.6
same,Net Average Signals at 60 Minutes,"CAPS pH 10.4, 60 minutes","4,514,998 RLU"
same,Signal to Background Ratios at 105 Minutes,"CAPS pH 10.4, 105 minutes",12.3
same,Net Average Signals at 105 Minutes,"CAPS pH 10.4, 105 minutes","6,646,007 RLU"
same,Signal to Background Ratios at 15 Minutes,"HEPES pH 7.5, 15 minutes",1.4
same,Net Average Signals at 15 Minutes,"HEPES pH 7.5, 15 minutes","15,697 RLU"
same,Signal to Background Ratios at 60 Minutes,"HEPES pH 7.5, 60 minutes",2.5
same,Net Average Signals at 60 Minutes,"HEPES pH 7.5, 60 minutes","56,121 RLU"
same,Signal to Background Ratios at 105 Minutes,"HEPES pH 7.5, 105 minutes",3.0
same,Net Average Signals at 105 Minutes,"HEPES pH 7.5, 105 minutes","111,757 RLU"
same,Net Average Signals at 15 Minutes,"KPO4 Ph 7.4, 15 minutes","16,032 RLU"
same,Signal to Background Ratios at 15 Minutes,"KPO4 pH 7.4, 15 minutes",1.5
same,Signal to Background Ratios at 60 Minutes,"KPO4 pH 7.4, 60 minutes",2.2
same,Net Average Signals at 60 Minutes,"KPO4 pH 7.4, 60 minutes","48,355 RLU"
same,Signal to Background Ratios at 105 Minutes,"KPO4 pH 7.4, 105 minutes",2.7
same,Net Average Signals at 105 Minutes,"KPO4 pH 7.4, 105 minutes","108,403 RLU"
same,Signal to Background Ratios at 15 Minutes,"KPO4 pH 9.2, 15 minutes",4.7
same,Net Average Signals at 15 Minutes,"KPO4 pH 9.2, 15 minutes","189,573 RLU"
same,Signal to Background Ratios at 60 Minutes,"KPO4 pH 9.2, 60 minutes",8.3
same,Net Average Signals at 60 Minutes,"KPO4 pH 9.2, 60 minutes","494,981 RLU"
same,Signal to Background Ratios at 105 Minutes,"KPO4 pH 9.2, 105 minutes",7.7
same,Net Average Signals at 105 Minutes,"KPO4 pH 9.2, 105 minutes","974,784 RLU"
same,Signal to Background Ratios at 15 Minutes,"TRIS pH 10.4, 15 minutes",23.2
same,Net Average Signals at 15 Minutes,"TRIS pH 10.4, 15 minutes","1,467,615 RLU"
same,Signal to Background Ratios at 60 Minutes,"TRIS pH 10.4, 60 minutes",27.8
same,Net Average Signals at 60 Minutes,"TRIS pH 10.4, 60 minutes","2,780,433 RLU"
same,Signal to Background Ratios at 105 Minutes,"TRIS pH 10.4, 105 minutes",24.2
same,Net Average Signals at 105 Minutes,"TRIS pH 10.4, 105 minutes","4,441,956 RLU"
same,Signal to Background Ratios at 15 Minutes,"Tris pH 7.4, 15 minutes",1.9
same,Net Average Signals at 15 Minutes,"Tris pH 7.4, 15 minutes","29,382 RLU"
same,Signal to Background Ratios at 60 Minutes,"Tris pH 7.4, 60 minutes",3.5
same,Net Average Signals at 60 Minutes,"Tris pH 7.4, 60 minutes","111,440 RLU"
same,Signal to Background Ratios at 105 Minutes,"Tris pH 7.4, 105 minutes",4.4
same,Net Average Signals at 105 Minutes,"Tris pH 7.4, 105 minutes","245,489 RLU"
